Results reported in article PMC7679387, “VZHE-039, a novel antisickling agent that prevents erythrocyte sickling under both hypoxic and anoxic conditions” (Scientific Reports, 2020).
Entries after “also recorded” stand apart in the source; their conditions may differ.

Experiments:
SS RBCs = assay: pO2-dependent degree of sickling in Hemox Analyzer; format: cell-based, human; conditions: Hct 20%
Method: In a confirmatory study, a pO2 dependent degree of sickling of VZHE-039 at 1 and 2 mM doses, with Voxelotor as a control was performed using a Hemox analyzer. […] Oksenberg et al.reported similar observations with Voxelotor[28], where the compound lost its potent antisickling activity at low pO2 values.
The second study established pO2 dependent degree of sickling of VZHE-039, with Voxelotor as a control. Concurrently, blood samples, hematocrit 20%, were incubated without any drug (control) or with 1, or 2 mM VZHE-039 at 37 °C for 1 h. A second control sample was incubated with 2 mM Voxelotor. At conclusion, 100 uL aliquots of each suspension were mixed with 2.5 mL Hemox buffer (pH 7.4, supplemented with antifoam), and transferred into the sample chamber of the Hemox Analyzer. Compressed air was then flushed through the sample to ensure complete oxygenation (at 150 mmHg). Nitrogen gas was then introduced into the sample chamber, and 50 uL aliquots were obtained and fixed at defined pO2 values. At conclusion, all fixed samples were subjected to microscopic analysis for their degree of sickling, and results were plotted using Prism Graph Pad software. The experiments were conducted in three replicates on different days, and mean and standard deviation values are reported.

[1] = Partitioning into RBCs in whole blood; format: in vitro ADME; conditions: 100–300 µM; normal whole human blood, 37 °C
Method: Toxicity concerns remain an important issue in the use of aromatic aldehydes in treating a chronic disease, such as SCD, especially as it involves modification of a large amount of in vivo present Hb. […] We evaluated key metrics such as in vitro RBC partitioning and ADME/safety profiles, in order to glean important safety insights. […] We also assessed VZHE-039 at 10 μM for its bi-directional cell permeability using Caco-2 cell monolayers[53],[54].
We incubated test compounds at expected blood concentrations (100–300 uM) with whole blood (mouse or human), after which we analyzed compound concentrations separately in plasma, whole blood and RBCs. Previously, we have established and validated reversed-phase HPLC and LC/MS methods for accurately measuring the compounds in blood. Validated reversed-phase HPLC was conducted on a Hitachi system, using a Waters C18 column, and a gradient of 0.1% Formic Acid in water (mobile phase A), and 0.1% Formic Acid in Acetonitrile (mobile phase B) at a flow rate of 1 mL/min in 12 min. UHPLC and LC/MS analyses were conducted at the Bioanalytical Core Facility at The Children’s Hospital of Philadelphia. […] 5 uL of each sample was injected at analyzed using a gradient of: (A) 5 mM ammonium acetate in deionized water (pH adjusted to 4.8 by formic acid); and (B) 5 mM ammonium acetate in (90:10) acetonitrile: water, at a flow rate of 0.5 mL/minute. […]

SS cells = assay: Antisickling study with SS cells under hypoxia (2.5% O2); format: cell-based, human; conditions: 20% hematocrit, […] O2, 37 °C
Method: For our previously studied compounds (e.g., INN-312, TD-7, SAJ-310, INN-298) that incorporate methoxyPy substitution to vanillin analogs, we observed a significant increase in functional and biological activity as a result of increased protein interactions[31],[33],[35],[36]. We therefore expected similar effects for VZHE-039, which we tested by following VZHE-039 activity (measured by Hb adduct formation, P50-shift and RBC sickling inhibition) using SS blood. Briefly, we incubated 0.5, 1, and 2 mM concentrations of VZHE-039 with whole blood suspensions from subjects with homozygous SCD (Hct of 20%) under hypoxic conditions (2.5% O2/97.5% N2) at 37 °C for 2 h for expected peak adduct. Aliquot blood samples were drawn into a fixative (2% glutaraldehyde solution), and sickling was assessed by microscopy[31],[33],[35],[36]. Aliquot samples were also subjected to cation-exchange HPLC analyses to assess the degree of Hb modification to the high-affinity adduct form (Hb adduct formation), as well as standard O2 equilibrium curves (OEC) to assess P50-shifts using hemox analyzer[31],[33],[35],[36]. […] The improved potency of Voxelotor has been attributed to reduced binding stoichiometry, i.e. while Voxelotor binds Hb at a 1:1 ratio, VZHE-039 binds Hb at a 2:1 ratio. […] This observation, as will be discussed later is likely due to a meaningful contribution from the novel O2-independent antisickling activity as result of the strong contact with the αF-helix.
The effect of VZHE-039 on RBC sickling, Hb modification, and Hb oxygen equilibrium was studied utilizing samples from consented individuals with homozygous SCD following previous procedure. Briefly, blood suspended in Hemox buffer and supplemented with glucose and bovine serum albumin, to a final hematocrit of 20% were incubated under air in the absence or presence of 0.5 mM, 1 mM and 2 mM VZHE-039 at 37 °C for 1 h. This was followed by incubating the suspensions under hypoxic conditions (2.5% O2/97.5% N2) at 37 °C for 2 h. Aliquot samples were obtained and fixed with 2% glutaraldehyde solution without exposure to air, and then subjected to microscopic morphological analysis of bright field images (at × 40 magnification) of single layer cells on an Olympus BX40 microscope fitted with an Infinity 2 camera (Olympus), and the coupled Image Capture software. Leftover samples were washed in phosphate-buffer saline, and hemolyzed in hypotonic lysis buffer for subsequent Hb-modification and oxygen equilibrium analyses.

With `O=Cc1c(O)cccc1OCc1cccc(CO)n1` [VZHE-039, 2-((6-(Hydroxymethyl)pyridin-2-yl)methoxy)-6-hydroxybenzaldehyde] the “pO2-dependent sickling inhibition (in words)” value (SS RBCs; 1 mM) was “delay in initiation of sickling, as well as reduction in the total number of sickled cells; also recorded: significant delay in initiation of sickling”, the “pO2-dependent sickling inhibition (in words)” value (SS RBCs; 2 mM) was “complete inhibition of sickling at the lowest recorded pO2; also recorded: complete sickling inhibition at all pO2” and the “Partitioned into the RBC compartment” value [1] was “approximately 85%”. The “Sickling Inhibition” value (SS cells; 0.5 mM) was 34.5 ± 2.4%, the “Sickling Inhibition” value (SS cells; 1 mM) was 63.7 ± 6.9% and the “Sickling Inhibition” value (SS cells; 2 mM) was 92.8 ± 5.5%. The inhibition at 500 µM (SS cells; Homo sapiens, 0.5 mM, read-out: Sickling Inhibition) was 35%, the inhibition at 1000 µM (SS cells; Homo sapiens, 1 mM, read-out: Sickling Inhibition) was 63% and the inhibition at 2000 µM (SS cells; Homo sapiens, 2 mM, read-out: Sickling Inhibition) was 93%.
